Measurements reported in US10597388B2, “Pyridazinone herbicides” (FMC CORPORATION, priority 2014, dated 2020).

Experiments:
Type in all cases: in vivo
[1] = system: ryegrass, Italian (Italian ryegrass, Lolium multiflorum); assay: Test A greenhouse herbicide test, pre- and postemergence
Method in brief: (§1)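 Seeds in loam–sand blend received a preemergence directed soil spray; plants at 2–10 cm, one- to two-leaf stage, received postemergence sprays. Compounds in a non-phytotoxic solvent with surfactant. After about 10 d in a greenhouse, injury rated visually versus untreated controls on a 0–100 scale (100 = complete control).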

[2] = system: barnyardgrass (Echinochloa crus-galli); assay: as above
Method in brief: as §1

[3] = system: wheat (Triticum aestivum); assay: as above; conditions: Postemergence; for Plant response rating, Wheat: 125 g ai/ha, 0 to 100 scale where 0 is no effect and 100 is complete control; for Wheat plant response rating: 500 g ai/ha, 0 to 100 scale, 0 is no effect, 100 is complete control
Method in brief: as §1

kochia (Kochia scoparia) = assay: as above
Method in brief: as §1

[4] = system: foxtail, giant (giant foxtail, Setaria faberii); assay: as above
Method in brief: as §1

[5] = system: pigweed (Amaranthus retroflexus); assay: as above
Method in brief: as §1

[6] = system: ragweed (common ragweed, Ambrosia elatior); assay: as above
Method in brief: as §1

corn (Zea mays) = assay: as above; conditions: Postemergence; for Plant response rating, Corn: 125 g ai/ha, 0 to 100 scale where 0 is no effect and 100 is complete control; for Corn plant response rating: 500 g ai/ha, 0 to 100 scale, 0 is no effect, 100 is complete control
Method in brief: as §1

[7] = system: ryegrass, Italian (Italian ryegrass, Lolium multiflorum); assay: Test C greenhouse herbicide test, pre- and postemergence
Method in brief: (§2)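 Pre- and postemergence greenhouse screen; values are visual control ratings, 0 meaning no effect and 100 complete kill, assigned relative to untreated plants after 13 to 15 d.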

[8] = system: nutsedge, yellow (yellow nutsedge, Cyperus esculentus); assay: as above
Method in brief: as §2

[9] = system: lambsquarters (Chenopodium album); assay: as above
Method in brief: as §2

[10] = Postemergence, 125 g ai/ha, 0 to 100 scale where 0 is no effect and 100 is complete control
[11] = Postemergence, 500 g ai/ha, 0 to 100 scale, 0 is no effect, 100 is complete control
[12] = Preemergence, 125 g ai/ha, 0 to 100 scale where 0 is no effect and 100 is complete control
[13] = Preemergence, 500 g ai/ha, 0 to 100 scale, 0 no effect, 100 complete control
[14] = Postemergence, 31 g ai/ha, 0 to 100 scale (0 no effect, 100 complete control)
[15] = Postemergence, 125 g ai/ha, scale 0 to 100, 0 is no effect, 100 is complete control
[16] = Postemergence, 250 g ai/ha, scale 0 to 100, 0 no effect, 100 complete control, 13 to 15 d
[17] = Preemergence, 31 g ai/ha, scale 0 to 100, 0 is no effect, 100 is complete control
[18] = Preemergence, 62 g ai/ha, scale 0 to 100, 0 is no effect, 100 is complete control
[19] = Preemergence, 125 g ai/ha, scale 0 to 100, 0 is no effect, 100 is complete control
[20] = Preemergence, 250 g ai/ha, scale 0 to 100 (0 no effect, 100 complete control)
[21] = postemergence, 62 g ai/ha, scale 0 to 100, 0 no effect, 100 complete control

## COc1nn(C)c(=O)c(-c2c(C)ccc3ccccc23)c1O [Compound 54]
[1]; [10]
  Plant response rating, Ryegrass, Italian: 60
[1]; [11]
  Ryegrass, Italian plant response rating: 100
[1]; [12]
  Ryegrass, Italian plant response rating: 30
[1]; [13]
  Plant response rating, Ryegrass, Italian: 100
[2]; [10]
  Plant response rating, Barnyardgrass: 30
[2]; [11]
  Barnyardgrass plant response rating: 90
[2]; [12]
  Barnyardgrass plant response rating: 40
[2]; [13]
  Plant response rating, Barnyardgrass: 90
[3]
  Plant response rating, Wheat: 20
  Wheat plant response rating: 20
Kochia (Kochia scoparia); [10]
  Plant response rating, Kochia: 100
Kochia (Kochia scoparia); [11]
  Kochia plant response rating: 100
Kochia (Kochia scoparia); [12]
  Kochia plant response rating: 50
Kochia (Kochia scoparia); [13]
  Plant response rating, Kochia: 100
[4]; [10]
  Plant response rating, Foxtail, Giant: 60
[4]; [11]
  Foxtail, Giant plant response rating: 90
[4]; [12]
  Foxtail, Giant plant response rating: 60
[4]; [13]
  Plant response rating, Foxtail, Giant: 100
[5]; [10]
  Plant response rating, Pigweed: 90
[5]; [11]
  Pigweed plant response rating: 100
[5]; [12]
  Pigweed plant response rating: 100
[5]; [13]
  Plant response rating, Pigweed: 100
[6]; [10]
  Plant response rating, Ragweed: 100
[6]; [11]
  Ragweed plant response rating: 100
[6]; [12]
  Ragweed plant response rating: 90
[6]; [13]
  Plant response rating, Ragweed: 100
Corn (Zea mays)
  Plant response rating, Corn: 20
  Corn plant response rating: 30
[7]; [14]
  Ryegrass, Italian plant response rating: 50
[7]; [15]
  Plant response rating, Ryegrass, Italian: 85
[7]; [16]
  Plant response rating, Ryegrass, Italian: 80
[7]; [17]
  Plant response rating, Ryegrass, Italian: 55
[7]; [18]
  Plant response rating, Ryegrass, Italian: 50
[7]; [19]
  Plant response rating, Ryegrass, Italian: 80
[7]; [20]
  Ryegrass, Italian plant response rating: 90
[7]; [21]
  Ryegrass, Italian plant response rating: 80
[8]; [14]
  Nutsedge, Yellow plant response rating: 10
[8]; [15]
  Plant response rating, Nutsedge, Yellow: 55
[8]; [16]
  Plant response rating, Nutsedge, Yellow: 70
[8]; [17]
  Plant response rating, Nutsedge, Yellow: 5
[8]; [18]
  Plant response rating, Nutsedge, Yellow: 5
[8]; [19]
  Plant response rating, Nutsedge, Yellow: 25
[8]; [20]
  Nutsedge, Yellow plant response rating: 70
[8]; [21]
  Nutsedge, Yellow plant response rating: 35
[9]; [14]
  Lambsquarters plant response rating: 95
[9]; [15]
  Plant response rating, Lambsquarters: 100
[9]; [16]
  Plant response rating, Lambsquarters: 100
[9]; [17]
  Plant response rating, Lambsquarters: 80
[9]; [18]
  Plant response rating, Lambsquarters: 85
[9]; [19]
  Plant response rating, Lambsquarters: 80
[9]; [20]
  Lambsquarters plant response rating: 80
[9]; [21]
  Lambsquarters plant response rating: 95

## Cc1ccc2ccccc2c1-c1c(O)cnn(C)c1=O [Compound 56]
[1]; [10]
  Plant response rating, Ryegrass, Italian: 90
[1]; [11]
  Ryegrass, Italian plant response rating: 100
[1]; [12]
  Ryegrass, Italian plant response rating: 100
[1]; [13]
  Plant response rating, Ryegrass, Italian: 100
[2]; [10]
  Plant response rating, Barnyardgrass: 10
[2]; [11]
  Barnyardgrass plant response rating: 60
[2]; [12]
  Barnyardgrass plant response rating: 10
[2]; [13]
  Plant response rating, Barnyardgrass: 50
[3]
  Plant response rating, Wheat: 10
  Wheat plant response rating: 50
Kochia (Kochia scoparia); [10]
  Plant response rating, Kochia: 90
Kochia (Kochia scoparia); [11]
  Kochia plant response rating: 100
Kochia (Kochia scoparia); [12]
  Kochia plant response rating: 40
Kochia (Kochia scoparia); [13]
  Plant response rating, Kochia: 90
[4]; [10]
  Plant response rating, Foxtail, Giant: 20
[4]; [11]
  Foxtail, Giant plant response rating: 60
[4]; [12]
  Foxtail, Giant plant response rating: 30
[4]; [13]
  Plant response rating, Foxtail, Giant: 70
[5]; [10]
  Plant response rating, Pigweed: 80
[5]; [11]
  Pigweed plant response rating: 90
[5]; [12]
  Pigweed plant response rating: 60
[5]; [13]
  Plant response rating, Pigweed: 100
[6]; [10]
  Plant response rating, Ragweed: 70
[6]; [11]
  Ragweed plant response rating: 90
[6]; [12]
  Ragweed plant response rating: 80
[6]; [13]
  Plant response rating, Ragweed: 90
Corn (Zea mays)
  Plant response rating, Corn: 0
  Corn plant response rating: 10
[7]; [14]
  Ryegrass, Italian plant response rating: 40
[7]; [15]
  Plant response rating, Ryegrass, Italian: 65
[7]; [16]
  Plant response rating, Ryegrass, Italian: 90
[7]; [21]
  Ryegrass, Italian plant response rating: 60
[8]; [14]
  Nutsedge, Yellow plant response rating: 0
[8]; [15]
  Plant response rating, Nutsedge, Yellow: 50
[8]; [16]
  Plant response rating, Nutsedge, Yellow: 60
[8]; [21]
  Nutsedge, Yellow plant response rating: 5
[9]; [14]
  Lambsquarters plant response rating: 0
[9]; [15]
  Plant response rating, Lambsquarters: 85
[9]; [16]
  Plant response rating, Lambsquarters: 85
[9]; [21]
  Lambsquarters plant response rating: 50
